Reference: PubChem BioAssay (NCI)
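Where inhibition never reached the appropriate level, the endpoint shown equals the highest concentration tested. Otherwise, values were interpolated linearly from a five-concentration, 48-hour dose response in 96-well plates. At the TGI there is no net growth.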

Columns and labels:
Test in all cases: NCI tumour cell line growth inhibition, 48 h
SN12C renal = test system: SN12C renal
XF 498 CNS = test system: XF 498 CNS
TK-10 renal = test system: TK-10 renal
KM12 colon = test system: KM12 colon
SNB-19 CNS = test system: SNB-19 CNS
COLO 205 colon = test system: COLO 205 colon
OVCAR-8 ovarian = test system: OVCAR-8 ovarian
A498 renal = test system: A498 renal
EKVX NSCLC = test system: EKVX NSCLC
U251 CNS = test system: U251 CNS
DMS 114 small cell lung = test system: DMS 114 small cell lung
RPMI-8226 leukemia = test system: RPMI-8226 leukemia
KM20L2 colon = test system: KM20L2 colon
NCI-H23 lung = test system: NCI-H23 lung
SF-268 CNS = test system: SF-268 CNS
HOP-92 NSCLC = test system: HOP-92 NSCLC
NCI-H460 lung = test system: NCI-H460 lung
SK-MEL-28 melanoma = test system: SK-MEL-28 melanoma
M19-MEL melanoma = test system: M19-MEL melanoma
OVCAR-4 ovarian = test system: OVCAR-4 ovarian
786-0 renal = test system: 786-0 renal
UO-31 renal = test system: UO-31 renal
A549 NSCLC = test system: A549 NSCLC
NCI-H522 lung = test system: NCI-H522 lung
SK-MEL-2 melanoma = test system: SK-MEL-2 melanoma
HOP-18 NSCLC = test system: HOP-18 NSCLC
SK-MEL-5 melanoma = test system: SK-MEL-5 melanoma
K-562 leukemia = test system: K-562 leukemia
HCC-2998 colon = test system: HCC-2998 colon
DLD-1 colon = test system: DLD-1 colon
UACC-62 melanoma = test system: UACC-62 melanoma
OVCAR-5 ovarian = test system: OVCAR-5 ovarian
CAKI-1 renal = test system: CAKI-1 renal
RXF-631 renal = test system: RXF-631 renal
ACHN renal = test system: ACHN renal
IGROV1 ovarian = test system: IGROV1 ovarian
LOX IMVI melanoma = test system: LOX IMVI melanoma
SW-620 colon = test system: SW-620 colon
SF-295 CNS = test system: SF-295 CNS
HOP-62 NSCLC = test system: HOP-62 NSCLC
SNB-75 CNS = test system: SNB-75 CNS
CCRF-CEM leukemia = test system: CCRF-CEM leukemia
M14 melanoma = test system: M14 melanoma
UACC-257 melanoma = test system: UACC-257 melanoma
NCI-H226 lung = test system: NCI-H226 lung
SNB-78 CNS = test system: SNB-78 CNS
SF-539 CNS = test system: SF-539 CNS
MALME-3M melanoma = test system: MALME-3M melanoma
DMS 273 small cell lung = test system: DMS 273 small cell lung
LXFL 529 NSCLC = test system: LXFL 529 NSCLC
SK-OV-3 ovarian = test system: SK-OV-3 ovarian
SR leukemia = test system: SR leukemia
MOLT-4 leukemia = test system: MOLT-4 leukemia
HCT-116 colon = test system: HCT-116 colon
OVCAR-3 ovarian = test system: OVCAR-3 ovarian
HT29 colon = test system: HT29 colon
RXF 393 renal = test system: RXF 393 renal
HCT-15 colon = test system: HCT-15 colon
HL-60(TB) leukemia = test system: HL-60(TB) leukemia

Measured: TGI

C#CCOCn1cnc2c(N)ncnc21
> 100 µM: SN12C renal | XF 498 CNS | TK-10 renal | KM12 colon | SNB-19 CNS | COLO 205 colon | OVCAR-8 ovarian | A498 renal | EKVX NSCLC | U251 CNS | DMS 114 small cell lung | RPMI-8226 leukemia | KM20L2 colon | NCI-H23 lung | SF-268 CNS | HOP-92 NSCLC | NCI-H460 lung | SK-MEL-28 melanoma | M19-MEL melanoma | OVCAR-4 ovarian | 786-0 renal | UO-31 renal | A549 NSCLC | NCI-H522 lung | SK-MEL-2 melanoma | HOP-18 NSCLC | SK-MEL-5 melanoma | K-562 leukemia | HCC-2998 colon | DLD-1 colon | UACC-62 melanoma | OVCAR-5 ovarian | CAKI-1 renal | RXF-631 renal | ACHN renal | IGROV1 ovarian | LOX IMVI melanoma | SW-620 colon | SF-295 CNS | HOP-62 NSCLC | SNB-75 CNS | CCRF-CEM leukemia | M14 melanoma | UACC-257 melanoma | NCI-H226 lung | SNB-78 CNS | SF-539 CNS | MALME-3M melanoma | DMS 273 small cell lung | LXFL 529 NSCLC | SK-OV-3 ovarian | SR leukemia | MOLT-4 leukemia | HCT-116 colon | OVCAR-3 ovarian | HT29 colon

Cc1c(-c2cc(-c3ccccc3)n[nH]c2=O)c2ccccc2n1C
> 100 µM: SN12C renal | XF 498 CNS | TK-10 renal | KM12 colon | SNB-19 CNS | COLO 205 colon | OVCAR-8 ovarian | A498 renal | EKVX NSCLC | U251 CNS | DMS 114 small cell lung | RXF 393 renal | RPMI-8226 leukemia | KM20L2 colon | NCI-H23 lung | SF-268 CNS | HOP-92 NSCLC | NCI-H460 lung | SK-MEL-28 melanoma | HCT-15 colon | M19-MEL melanoma | OVCAR-4 ovarian | 786-0 renal | UO-31 renal | A549 NSCLC | NCI-H522 lung | SK-MEL-2 melanoma | HOP-18 NSCLC | SK-MEL-5 melanoma | K-562 leukemia | HCC-2998 colon | HL-60(TB) leukemia | DLD-1 colon | UACC-62 melanoma | OVCAR-5 ovarian | CAKI-1 renal | ACHN renal | IGROV1 ovarian | SW-620 colon | SF-295 CNS | HOP-62 NSCLC | SNB-75 CNS | CCRF-CEM leukemia | M14 melanoma | UACC-257 melanoma | NCI-H226 lung | SNB-78 CNS | SF-539 CNS | MALME-3M melanoma | DMS 273 small cell lung | LXFL 529 NSCLC | SK-OV-3 ovarian | SR leukemia | MOLT-4 leukemia | HCT-116 colon | OVCAR-3 ovarian | HT29 colon
